Results reported in article PMC6332235, “Phosphonylated Acyclic Guanosine Analogues with the 1,2,3-Triazole Linker” (Molecules, 2015).
Like-named read-outs stand apart in the source and are kept apart here.

Columns and labels:
[1] = test system: murine leukemia L1210 cells; experiment: Cytostatic activity: inhibition of proliferation of murine leukemia L1210 cells; type: cell-based
Method: (§1) The cytotoxicity of the tested compounds toward the uninfected host cells was defined as the minimum cytotoxic concentration (MCC) that causes a microscopically-detectable alteration of normal cell morphology. The 50% cytotoxic concentration (CC50), causing a 50% decrease in cell viability, was determined using a colorimetric 3-(4,5-dimethylthiazol-2-yl)-5-(3-carboxymethoxyphenyl)-2-(4-sulfophenyl)-2H-tetrazolium (MTS) assay system. The cytostatic activity of the tested compounds was defined as the 50% cytostatic inhibitory concentration (IC50), causing a 50% decrease in cell proliferation, and was determined against murine leukemia L1210, human T-lymphocyte CEM and human cervix carcinoma HeLa cells (Table 1).
(§2) All assays were performed in 96-well microtiter plates. To each well were added (5−7.5) × 10^4 tumor cells and a given amount of the test compound. The cells were allowed to proliferate for 48 h (murine leukemia L1210 cells) or 72 h (human lymphocytic CEM and human cervix carcinoma HeLa cells) at 37 °C in a humidified CO2-controlled atmosphere. At the end of the incubation period, the cells were counted in a Coulter counter. The IC50 (50% inhibitory concentration) was defined as the concentration of the compound that inhibited cell proliferation by 50%.

[2] = test system: human cervix carcinoma HeLa cells; experiment: Cytostatic activity: inhibition of proliferation of human cervix carcinoma HeLa cells; type: cell-based; conditions: read-out: IC50 (HeLa)
Method: as §1, §2

[3] = test system: human T-lymphocyte CEM cells; experiment: Cytostatic activity: inhibition of proliferation of human T-lymphocyte CEM cells; type: cell-based; conditions: read-out: IC50 (CEM)
Method: as §1, §2

thymidine phosphorylase = test system: thymidine phosphorylase; set-up: method as in PMID 22372816; conditions: cited from earlier work
[4] = Mus musculus, L1210, 48 h, read-out: IC50 (L1210)
[5] = Mus musculus, L1210, 48 h, murine leukemia L1210 cells, 48 h proliferation, Coulter counter, read-out: IC50 (L1210)
[6] = Mus musculus, L1210, range over both L1210 and CEM cells and both 17k isomers, read-out: IC50 against proliferation of L1210 and CEM cell lines (range given)
[7] = range over both L1210 and CEM cells and both 17k isomers, read-out: IC50 against proliferation of L1210 and CEM cell lines (range given)
[8] = human cervix carcinoma HeLa cells, 72 h proliferation, Coulter counter
[9] = CCRF-CEM, human T-lymphocyte CEM cells, 72 h proliferation, Coulter counter

| Compound | IC50 [1, 4] [µM] | IC50 ([2]; Homo sapiens, HeLa, 72 h) [µM] | IC50 ([3]; Homo sapiens, CCRF-CEM, 72 h) [µM] | further results |
| --- | --- | --- | --- | --- |
| CCOP(=O)(CCCn1cc(Cn2cnc3c(=O)[nH]c(N)nc32)nn1)OCC [Compound 16c, Diethyl 3-{4-[(2-amino-6-oxo-1,6-dihydro-9H-purin-9-yl)methyl]-1H-1,2,3-triazol-1-yl}propylphosphonate] | > 250 | 138 ± 52 | > 250 | – |
| CCOP(=O)(OCC)C(O)Cn1cc(Cn2cnc3c(Cl)nc(N)nc32)nn1 (stereo not shown) [Compound 17e, Diethyl 2-{4-[(2-amino-6-chloro-9H-purin-9-yl)methyl]-1H-1,2,3-triazol-1-yl}-1-hydroxyethylphosphonate] | > 250 | > 250 | > 250 | melting point: 174 to 175 °C |
| Nc1nc(Cl)c2ncn(Cc3cn(C[C@H](OCc4ccccc4)[C@@H](O)P(=O)(OCc4ccccc4)OCc4ccccc4)nn3)c2n1 [(1S,2S)-17k, (1S,2S)-Dibenzyl 3-{4-[(2-amino-6-chloro-9H-purin-9-yl)methyl]-1H-1,2,3-triazol-1-yl}-2-benzyloxy-1-hydroxypropylphosphonate] | – | – | – | IC50 [1, 5]: 16 ± 6 µM; IC50 [1, 6]: 15 to 30 µM; IC50 [1, 7]: 16 to 30 µM; IC50 [2, 8]: 84 ± 12 µM; IC50 [3, 9]: 30 ± 16 µM; melting point: 76 to 78 °C |
| CCOP(=O)(OCC)C(O)Cn1cc(Cn2cnc3c(=O)[nH]c(N)nc32)nn1 (stereo not shown) [Compound 16e, Diethyl 2-{4-[(2-amino-6-oxo-1,6-dihydro-9H-purin-9-yl)methyl]-1H-1,2,3-triazol-1-yl}-1-hydroxyethylphosphonate] | > 250 | 206 ± 49 | > 250 | melting point: > 265 °C |
| CCOP(=O)(CCCn1cc(Cn2cnc3c(Cl)nc(N)nc32)nn1)OCC [Compound 17c, Diethyl 3-{4-[(2-amino-6-chloro-9H-purin-9-yl)methyl]-1H-1,2,3-triazol-1-yl}propylphosphonate] | 227 ± 32 | ≥ 250 | > 250 | – |
| CCOP(=O)(CNC(=O)Cn1cc(Cn2cnc3c(=O)[nH]c(N)nc32)nn1)OCC [Compound 16j, Diethyl 2-{4-[(2-amino-6-oxo-1,6-dihydro-9H-purin-9-yl)methyl]-1H-1,2,3-triazol-1-yl}acetamidomethyphosphonate] | > 250 | 212 ± 54 | > 250 | melting point: > 230 °C |
| CCOP(=O)(CC(O)Cn1cc(Cn2cnc3c(=O)[nH]c(N)nc32)nn1)OCC (stereo not shown) [Compound 16f, Diethyl 3-{4-[(2-amino-6-oxo-1,6-dihydro-9H-purin-9-yl)methyl]-1H-1,2,3-triazol-1-yl}-2-hydroxypropylphosphonate] | > 250 | 195 ± 78 | > 250 | – |
| CCOP(=O)(CCCCn1cc(Cn2cnc3c(=O)[nH]c(N)nc32)nn1)OCC [Compound 16d, Diethyl 4-{4-[(2-amino-6-oxo-1,6-dihydro-9H-purin-9-yl)methyl]-1H-1,2,3-triazol-1-yl}butylphosphonate] | > 250 | 148 ± 25 | > 250 | – |
| CCOP(=O)(CCn1cc(Cn2cnc3c(=O)[nH]c(N)nc32)nn1)OCC [Compound 16b, Diethyl 2-{4-[(2-amino-6-oxo-1,6-dihydro-9H-purin-9-yl)methyl]-1H-1,2,3-triazol-1-yl}ethylphosphonate] | > 250 | > 250 | > 250 | – |
| Nc1nc(Cl)c2ncn(Cc3cn(C[C@H](OCc4ccccc4)[C@H](O)P(=O)(OCc4ccccc4)OCc4ccccc4)nn3)c2n1 [(1R,2S)-17k, (1R,2S)-Dibenzyl 3-{4-[(2-amino-6-chloro-9H-purin-9-yl)methyl]-1H-1,2,3-triazol-1-yl}-2-benzyloxy-1-hydroxypropylphosphonate] | – | – | – | IC50 [1, 5]: 21 ± 2 µM; IC50 [1, 6]: 15 to 30 µM; IC50 [1, 7]: 16 to 30 µM; IC50 [2, 8]: 90 ± 33 µM; IC50 [3, 9]: 26 ± 8 µM |
| CCOP(=O)(CCOCCn1cc(Cn2cnc3c(=O)[nH]c(N)nc32)nn1)OCC [Compound 16i, Diethyl 2-{4-[(2-amino-6-oxo-1,6-dihydro-9H-purin-9-yl)methyl]-1H-1,2,3-triazol-1-yl}ethoxyethyphosphonate] | > 250 | 210 ± 13 | > 250 | – |
| CCOP(=O)(Cn1cc(Cn2cnc3c(Cl)nc(N)nc32)nn1)OCC [Compound 17a, Diethyl {4-[(2-amino-6-chloro-9H-purin-9-yl)methyl]-1H-1,2,3-triazol-1-yl}methylphosphonate] | 283 ± 17 | ≥ 250 | ≥ 250 | – |
| CCOP(=O)(OCC)C(O)CCn1cc(Cn2cnc3c(=O)[nH]c(N)nc32)nn1 (stereo not shown) [Compound 16g, Diethyl 3-{4-[(2-amino-6-oxo-1,6-dihydro-9H-purin-9-yl)methyl]-1H-1,2,3-triazol-1-yl}-1-hydroxypropylphosphonate] | > 250 | 185 ± 35 | > 250 | – |
| CCOP(=O)(CCCCn1cc(Cn2cnc3c(Cl)nc(N)nc32)nn1)OCC [Compound 17d, Diethyl 4-{4-[(2-amino-6-chloro-9H-purin-9-yl)methyl]-1H-1,2,3-triazol-1-yl}butylphosphonate] | > 250 | ≥ 250 | > 250 | – |
| CCOP(=O)(CCOCCn1cc(Cn2cnc3c(Cl)nc(N)nc32)nn1)OCC [Compound 17i, Diethyl 2-{4-[(2-amino-6-chloro-9H-purin-9-yl)methyl]-1H-1,2,3-triazol-1-yl}-ethoxyethylphosphonate] | > 250 | > 250 | > 250 | – |
| CCOP(=O)(COCCn1cc(Cn2cnc3c(=O)[nH]c(N)nc32)nn1)OCC [Compound 16h, Diethyl 2-{4-[(2-amino-6-oxo-1,6-dihydro-9H-purin-9-yl)methyl]-1H-1,2,3-triazol-1-yl}ethoxymethyphosphonate] | > 250 | ≥ 250 | > 250 | melting point: 89 to 92 °C |
| CCOP(=O)(Cn1cc(Cn2cnc3c(=O)[nH]c(N)nc32)nn1)OCC [Compound 16a, Diethyl {4-[(2-amino-6-oxo-1,6-dihydro-9H-purin-9-yl)methyl]-1H-1,2,3-triazol-1-yl}methylphosphonate] | > 250 | > 250 | > 250 | – |
| CCOP(=O)(CCn1cc(Cn2cnc3c(Cl)nc(N)nc32)nn1)OCC [Compound 17b, Diethyl 2-{4-[(2-amino-6-chloro-9H-purin-9-yl)methyl]-1H-1,2,3-triazol-1-yl}ethylphosphonate] | ≥ 250 | 227 ± 32 | > 250 | – |
| Diethyl 2-{4-[(2-amino-6-chloro-9H-purin-9-yl)methyl]-1H-1,2,3-triazol-1-yl}-acetamidoethylphosphonate [Compound 17j] | – | – | – | IC50 ([1]; murine leukemia L1210 cells, 48 h proliferation, Coulter counter, read-out: IC50 (L1210)): > 250 µM; IC50 [2, 8]: > 250 µM; IC50 ([3]; human T-lymphocyte CEM cells, 72 h proliferation, Coulter counter): > 250 µM |
| CCOP(=O)(OCC)C(O)CCn1cc(Cn2cnc3c(Cl)nc(N)nc32)nn1 (stereo not shown) [Compound 17g, Diethyl 3-{4-[(2-amino-6-chloro-9H-purin-9-yl)methyl]-1H-1,2,3-triazol-1-yl}-1-hydroxypropylphosphonate] | > 250 | > 250 | > 250 | – |
| Nc1nc2c(ncn2Cc2cn(CCCCC(F)(F)P(=O)(O)O)nn2)c(=O)[nH]1 [Compound 13] | – | – | – | Inhibitory activity against thymidine phosphorylase (thymidine phosphorylase): inhibitory activity |
| O=c1[nH]cc(F)c(=O)[nH]1 [5-fluorouracil, reference compound] | – | – | – | IC50 [1, 5]: 0.33 ± 0.17 µM; IC50 [2, 8]: 0.54 ± 0.12 µM; IC50 [3, 9]: 18 ± 5 µM |
| CCOP(=O)(COCCn1cc(Cn2cnc3c(Cl)nc(N)nc32)nn1)OCC [Compound 17h, Diethyl 2-{4-[(2-amino-6-chloro-9H-purin-9-yl)methyl]-1H-1,2,3-triazol-1-yl}-ethoxymethylphosphonate] | > 250 | > 250 | ≥ 250 | – |
| CCOP(=O)(CC(O)Cn1cc(Cn2cnc3c(Cl)nc(N)nc32)nn1)OCC (stereo not shown) [Compound 17f, Diethyl 3-{4-[(2-amino-6-chloro-9H-purin-9-yl)methyl]-1H-1,2,3-triazol-1-yl}-2-hydroxypropylphosphonate] | > 250 | > 250 | > 250 | – |
